Reference: patent US12312359B2 (Vitae Pharmaceuticals, LLC, priority 2016, dated 2025)

How the values were obtained:
[1] = target: T1, biotinylated wild-type menin and MLL-AF9 fusion protein (menin/MLL binding) (Homo sapiens, UniProt O00255); assay: Assay 1: menin/MLL binding AlphaLISA assay, wild-type menin; conditions: Table 30; column head does not say wild-type or mutated menin
T1 construct: made in house; host or cells: menin: E. coli; MLL-AF9-FLAG: HEK293 cells, used as cleared lysate
T1 sequence (O00255 1-610): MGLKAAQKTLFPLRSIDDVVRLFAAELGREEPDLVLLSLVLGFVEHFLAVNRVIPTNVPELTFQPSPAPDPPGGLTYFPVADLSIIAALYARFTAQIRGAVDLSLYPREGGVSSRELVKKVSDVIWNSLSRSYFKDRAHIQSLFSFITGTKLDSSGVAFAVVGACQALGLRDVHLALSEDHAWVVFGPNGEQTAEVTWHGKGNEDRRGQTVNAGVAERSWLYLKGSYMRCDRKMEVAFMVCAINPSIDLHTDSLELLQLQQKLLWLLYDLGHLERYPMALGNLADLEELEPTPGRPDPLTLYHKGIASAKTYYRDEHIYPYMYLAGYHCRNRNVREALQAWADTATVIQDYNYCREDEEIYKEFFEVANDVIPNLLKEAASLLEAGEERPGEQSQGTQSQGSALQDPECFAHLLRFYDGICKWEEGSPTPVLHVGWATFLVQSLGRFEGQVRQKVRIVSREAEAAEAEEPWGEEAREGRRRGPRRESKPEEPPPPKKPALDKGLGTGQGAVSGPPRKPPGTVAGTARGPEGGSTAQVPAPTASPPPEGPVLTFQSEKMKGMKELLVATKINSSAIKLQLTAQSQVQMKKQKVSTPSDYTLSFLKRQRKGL
Summary of the method: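 Compound was preincubated 30 min at room temperature with biotinylated menin (5 nM) and MLL-AF9-FLAG lysate from HEK293 cells, pH 7.4 buffer with 5% DMSO and DTT. Bead-based Alpha signal after 60 min with streptavidin donor and anti-FLAG acceptor beads; four-parameter logistic fit gave IC50.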

[2] = system: human acute monocytic leukemia cell line MV-4-11; assay: Assay 2: cell proliferation assay (ATP quantitation, CellTiter-Glo), MV-4-11; type: cell-based; conditions: MV-4-11 cells
Description: Potencies of inhibitor compounds against cell proliferation was assessed against the human acute monocytic leukemia cell line MV-4-11 (ATCC® CRL-9591™) based on ATP quantitation. MV-4-11 cells or toxicity control HL-60 cells (ATCC® CCL-240™) were incubated in 96-well tissue culture plates (1.67×10^4 cells in 200 μL culture media containing 10% FBS per well) with or without test compound for 72 h at 37° C., 5% CO2. After incubation, each well was mixed by pipetting and 95 μL from each well was transferred to a well in 96-well black OptiPlate® plates (PerkinElmer). An equal volume of CellTiter-Glo® Luminescent Cell Viability Assay reagent (Promega) was added to each well, followed by mixing for 5 min on an orbital plate shaker. Luminescence was measured on a Wallac EnVision 2104 Multilabel Reader (PerkinElmer) to quantitate ATP.

Compound	IC50 [1]	EC50 ([2]; Homo sapiens, MV4-11, 72 h)	EC50 ([2]; 72 h)
CC(C)N(C)C(=O)c1cc(F)ccc1Oc1cncnc1N1CCC2(CCN(Cc3ccc4oc(=O)[nH]c4c3)C2)C1 (stereo not shown) [Example 174, 5-fluoro-N-isopropyl-N-methyl-2-((4-(7-((2-oxo-2,3-dihydrobenzo[d]oxazol-5-yl)methyl)-2,7-diazaspiro[4.4]nonan-2-yl)pyrimidin-5-yl)oxy)benzamide]	< 100 nM	< 100 nM	
CC(C)N(C(=O)c1cc(F)ccc1Oc1cncnc1N1CC2(CCN(CC(C)(C)O)CC2)C1)C(C)C [Example 89, 5-fluoro-2-((4-(7-(2-hydroxy-2-methylpropyl)-2,7-diazaspiro[3.5]nonan-2-yl)pyrimidin-5-yl)oxy)-N,N-diisopropylbenzamide]	< 100 nM	100 to 1000 nM	
N#Cc1ccc(CCN2CC3(C2)CN(c2ncncc2Oc2ccc(F)cc2-c2ccc(C#N)cc2C2CC2)C3)cc1 [Example 203, 2′-((4-(6-(4-cyanophenethyl)-2,6-diazaspiro[3.3]heptan-2-yl)pyrimidin-5-yl)oxy)-2-cyclopropyl-5′-fluoro-[1,1′-biphenyl]-4-carbonitrile]	< 100 nM	≥ 1000 nM	
CC(C)c1ccccc1-c1cc(F)ccc1Oc1cncnc1N1CC2(CC(NCc3ccc(C#N)cc3)CO2)C1 (stereo not shown) [Example 19, 4-(((2-(5-((5-fluoro-2′-isopropyl-[1,1′-biphenyl]-2-yl)oxy)pyrimidin-4-yl)-5-oxa-2-azaspiro[3.4]octan-7-yl)amino)methyl)benzonitrile]	< 100 nM	100 to 1000 nM	
CC(C)c1ccccc1-c1cc(F)c(F)cc1Oc1cncnc1N1CCC2(CCN(Cc3ccc4[nH]c(=O)[nH]c4c3)C2)C1 (stereo not shown) [Example 47, 5-((7-(5-((4,5-difluoro-2′-isopropyl-[1,1′-biphenyl]-2-yl)oxy)pyrimidin-4-yl)-2,7-diazaspiro[4.4]nonan-2-yl)methyl)-1H-benzo[d]imidazol-2(3H)-one]	< 100 nM	100 to 1000 nM	
CC(C)N(C(=O)c1cc(F)ccc1Oc1cncnc1N1CC2(CCN(C(=O)CCc3ccc(F)cc3)C2)C1)C(C)C [Example 12, 5-fluoro-2-((4-(6-(3-(4-fluorophenyl)propanoyl)-2,6-diazaspiro[3.4]octan-2-yl)pyrimidin-5-yl)oxy)-N,N-diisopropylbenzamide]	< 100 nM	100 to 1000 nM	
Cc1cc(C#N)cc(C)c1-c1cc(F)ccc1Oc1cncnc1N1CCC2(CCN(Cc3ccc4[nH]c(=O)[nH]c4c3)C2)C1 (stereo not shown) [Example 51, 5′-fluoro-2,6-dimethyl-2′-((4-(7-((2-oxo-2,3-dihydro-1H-benzo[d]imidazol-5-yl)methyl)-2,7-diazaspiro[4.4]nonan-2-yl)pyrimidin-5-yl)oxy)-[1,1′-biphenyl]-4-carbonitrile]	< 100 nM	< 100 nM	
CC(C)N(C(=O)c1cc(F)ccc1Oc1cncnc1N1CC2(CCN(C3CCc4cc(C#N)ccc4C3)C2)C1)C(C)C (stereo not shown) [Example 104, 2-((4-(6-(6-cyano-1,2,3,4-tetrahydro-naphthalen-2-yl)-2,6-diazaspiro[3.4]octan-2-yl)pyrimidin-5-yl)oxy)-5-fluoro-N,N-diisopropyl-benzamide]	< 100 nM	< 100 nM	
CC(C)c1ncncc1-c1cc(F)ccc1Oc1cncnc1N1CC2(CN(CC3CCC(O)CC3)C2)C1 (stereo not shown) [Example 65, 4-((6-(5-(4-fluoro-2-(4-isopropylpyrimidin-5-yl)phenoxy)pyrimidin-4-yl)-2,6-diazaspiro[3.3]heptan-2-yl)methyl)cyclohexanol]	< 100 nM	100 to 1000 nM	
CC(C)c1ccccc1-c1cc(F)ccc1Oc1cncnc1N1CCC2(CCN(C[C@H]3CC[C@H](N)CC3)C2)C1 (stereo partly shown) [Example 219, (1r,4r)-4-((7-(5-((5-fluoro-2′-isopropyl-[1,1′-biphenyl]-2-yl)oxy)pyrimidin-4-yl)-2,7-diazaspiro[4.4]nonan-2-yl)methyl)cyclo-hexan-1-amine]	< 100 nM	100 to 1000 nM	
NC(c1cc(F)ccc1Oc1cncnc1N1CCC2(CCN(Cc3ccc4[nH]c(=O)[nH]c4c3)C2)C1)C1CCCC1 (stereo not shown) [Example 7, 5-((7-(5-(2-(amino(cyclopentyl)methyl)-4-fluorophenoxy)pyrimidin-4-yl)-2,7-diazaspiro[4.4]nonan-2-yl)methyl)-1,3-dihydro-2H-benzo[d]imidazol-2-one]	< 100 nM	100 to 1000 nM	
CC(C)c1ncncc1-c1cc(F)ccc1Oc1cncnc1N1CC2(CC(NCc3ccc(C#N)cc3)C2)C1 [Example 152, 4-(((2-(5-(4-fluoro-2-(4-isopropylpyrimidin-5-yl)phenoxy)pyrimidin-4-yl)-2-azaspiro[3.3]heptan-6-yl)amino)methyl) benzonitrile]	< 100 nM	< 100 nM	
CC(C)N(C)Cc1cc(F)ccc1Oc1cncnc1N1CCC2(CCN(Cc3ccc4[nH]c(=O)[nH]c4c3)C2)C1 (stereo not shown) [Example 135, 5-((7-(5-(4-fluoro-2-((isopropyl(methyl)amino)methyl)phenoxy)pyrimidin-4-yl)-2,7-diazaspiro[4.4]nonan-2-yl)methyl)-1,3-dihydro-2H-benzo[d]imidazol-2-one]	< 100 nM	≥ 1000 nM	
N#Cc1ccc(-c2cc(F)ccc2Oc2cncnc2N2CC3(CN(CC4CCOCC4)C3)C2)c(C2CC2)c1 [Example 215, 2-cyclopropyl-5′-fluoro-2′-((4-(6-((tetrahydro-2H-pyran-4-yl)methyl)-2,6-diazaspiro[3.3]heptan-2-yl)pyrimidin-5-yl)oxy)-[1,1′-biphenyl]-4-carbonitrile]	< 100 nM	100 to 1000 nM	
CC(C)c1ncncc1-c1cc(F)ccc1Oc1cncnc1N1CCC2(CCN(Cc3ccc4c(c3)NC(=O)C4(C)C)C2)C1 (stereo not shown) [Example 178, 6-((7-(5-(4-fluoro-2-(4-isopropylpyrimidin-5-yl)phenoxy)pyrimidin-4-yl)-2,7-diazaspiro[4.4]nonan-2-yl)methyl)-3,3-dimethylindolin-2-one]	< 100 nM	< 100 nM	

Now from value to compound:

IC50 [1]	EC50 ([2]; Homo sapiens, MV4-11, 72 h)	EC50 ([2]; 72 h)	Compound
< 100 nM		< 100 nM	CC(C)N(C(=O)c1cc(F)ccc1Oc1cncnc1N1CCC2(CCN(Cc3ccc4c(c3)[nH]c(=O)n4CCO)C2)C1)C(C)C (single isomer, unassigned) [Example 3B, 5-fluoro-2-((4-(7-((1-(2-hydroxyethyl)-2-oxo-2,3-dihydro-1H-benzo[d]imidazol-5-yl)methyl)-2,7-diazaspiro[4.4]nonan-2-yl)pyrimidin-5-yl)oxy)-N,N-diisopropylbenzamide]
< 100 nM		≥ 1000 nM	CC(C)N(C(=O)c1cc(F)ccc1Oc1cncnc1N1CCC2(CC(O)C(Cc3ccc4[nH]c(=O)[nH]c4c3)C2)C1)C(C)C (single isomer, unassigned) [Example 23C, 5-fluoro-2-((4-(7-hydroxy-8-((2-oxo-2,3-dihydro-1H-benzo[d]imidazol-5-yl)methyl)-2-azaspiro[4.4]nonan-2-yl)pyrimidin-5-yl)oxy)-N,N-diisopropylbenzamide]
< 100 nM		≥ 1000 nM	CC(C)N(C(=O)c1cc(F)ccc1Oc1cncnc1N1CCC2(CC(N)C(Cc3ccc4[nH]c(=O)[nH]c4c3)C2)C1)C(C)C (single isomer, unassigned) [Example 24B, 2-((4-(7-amino-8-((2-oxo-2,3-dihydro-1H-benzo[d]imidazol-5-yl)methyl)-2-azaspiro[4.4]nonan-2-yl)pyrimidin-5-yl)oxy)-5-fluoro-N,N-diisopropylbenzamide]
< 100 nM	100 to 1000 nM		N#Cc1ccc(-c2cc(F)ccc2Oc2cncnc2N2CCC3(CCN(Cc4ccc(N5CCCC5=O)cc4)C3)C2)c(C2CC2)c1 (stereo not shown) [Example 195, 2-cyclopropyl-5′-fluoro-2′-((4-(7-(4-(2-oxopyrrolidin-1-yl)benzyl)-2,7-diazaspiro [4.4]nonan-2-yl)pyrimidin-5-yl)oxy)-[1,1′-biphenyl]-4-carbonitrile]
< 100 nM	< 100 nM		CC(C)N(C)C(=O)c1cc(F)ccc1Oc1cncnc1N1CCC2(CCN(Cc3ccc4[nH]c(=O)[nH]c4c3)C2)C1 (single isomer, unassigned) [Example 183A, 5-fluoro-N-isopropyl-N-methyl-2-((4-(7-((2-oxo-2,3-dihydro-1H-benzo[d]imidazol-5-yl)methyl)-2,7-diazaspiro[4.4]nonan-2-yl)pyrimidin-5-yl)oxy)benzamide]
